Results on six compounds are retold here after the supplement of paper PMC11061612.

The structures appear in SMILES notation.

One assay has as its system Mewo (Melanoma). As to the kind of experiment: combination Emax (second highest fraction inhibited in the dose matrix, 72 h); higher = more inhibition; extreme values may be limits of the assay. An outline of the steps: (§1)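 Bliss excess equals the observed combination effect minus the expected value EA + EB − EA·EB, where EA and EB are the effects of each agent alone. Combination Emax is the second-highest inhibition within the matrix. Inhibition was scaled from CellTiter-Glo 2.0 luminescence, with 0 set by vehicle wells and 1 by blank wells, after 72 hours of two-drug dosing of cells plated in 1536-well plates.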

Assay [1] has as its system KARPAS-231 (B-Cell Non-Hodgkin's Lymphoma). The description is as above. The procedure, abridged:
as §1

Assay [2] has as its system SW1116 (Colorectal Carcinoma). The assay is described as above. The procedure, abridged: as §1
For assay [3], the system named is CAPAN-1 (Pancreatic Carcinoma). The assay is described as above. An outline of the steps: as §1
Assay [4] deals with TE-4 (Esophageal Squamous Cell Carcinoma). As to the kind of experiment: Bliss excess, mean over the matrix (fraction); higher = more synergy. The procedure, abridged: as §1
Assay [5] relates to LU-139 (Small Cell Lung Carcinoma). The description is as above. The procedure, abridged: as §1
Assay [6] has as its system HDLM-2 (Hodgkin's Lymphoma). Described as above. An outline of the steps: as §1
The subject of the next assay is NCI-H2795 (Mesothelioma). Described as above. The procedure, abridged:
as §1

The test system of assay [7] is OC-314 (Ovarian Carcinoma). The assay is described as above. An outline of the steps: as §1
The subject of another assay is NB14 (Neuroblastoma). The description is as above. The procedure, abridged:
as §1

For assay [8], the system named is RT-112 (Bladder Carcinoma). The assay is described as above. An outline of the steps: as §1
The test system of assay [9] is K5 (Thyroid Gland Carcinoma). The assay is described as above. The procedure, abridged:
as §1

Assay [10] concerns MHH-PREB-1 (B-Cell Non-Hodgkin's Lymphoma). The description is as above. The procedure, abridged: as §1
Assay [11] relates to NCI-H69 (Small Cell Lung Carcinoma). The assay is described as above. An outline of the steps:
as §1

Assay [12] concerns SW626 (Colorectal Carcinoma). The description is as above. The procedure, abridged: as §1
Assay [13] has as its system SUP-T1 (T-Lymphoblastic Leukemia). Described as above. The procedure, abridged:
as §1

In assay [14] the test system is RKO (Colorectal Carcinoma). The assay is described as above. An outline of the steps:
as §1

Assay [15] deals with CAPAN-1 (Pancreatic Carcinoma). The description is as above. An outline of the steps:
as §1

Another assay relates to COLO-829 (Melanoma). Described as above. An outline of the steps: as §1
The test system of assay [16] is SW1271 (Small Cell Lung Carcinoma). Described as above. An outline of the steps:
as §1

Regarding `NC1(C(=O)N[C@@H](CCO)c2ccc(Cl)cc2)CCN(c2ncnc3[nH]ccc23)CC1` [Capivasertib] + CC(=O)c1c(C)c2cnc(Nc3ccc(N4CCNCC4)cn3)nc2n(C2CCCC2)c1=O [Palbociclib] (first compound max 10 µM, 7x7, partner max 10 µM), the “combination Emax” value with Mewo (Melanoma) worked out at 0.493; in assay [1], 0.129; in assay [2], 0.136; in assay [3] it was 0.277. For the same compound, the Bliss excess is 0.0094 in [4]; -0.0256 in [5]; -0.0222 in [6]; 0.0247 with NCI-H2795 (Mesothelioma); 0.0028 in [7]; 0.0419 in the assay with NB14 (Neuroblastoma). The Bliss excess was -0.0324 in assay [8]; -0.0106 in [9]; -0.0158 in [10]; -0.0632 in [11]; 0.014 in assay [12]; -0.0239 in assay [13]. Besides, the Bliss excess in assay [14] was 0.0625; in assay [15] it was -0.0163; in the assay on COLO-829 (Melanoma) it was -0.0549; in assay [16] it was 0.043.

With `COc1cc2c(cc1OCCCCCOc1cc3c(cc1OC)C(=O)N1C=C(C)C[C@H]1C=N3)N=C[C@@H]1CC(C)=CN1C2=O` [SG3199] + O=C(c1cc(Cc2n[nH]c(=O)c3ccccc23)ccc1F)N1CCN(C(=O)C2CC2)CC1 [Olaparib] (first compound max 0.001 µM, 7x7, partner max 10 µM), the “combination Emax” value turned out to be 0.106 in the assay on Mewo (Melanoma), 0.262 in assay [1], 0.0344 in assay [2] and 0.198 in [3]. Further, the Bliss excess is -0.0319 in assay [4]; -0.0196 in assay [5]; -0.0444 in assay [6]; -0.0524 with NCI-H2795 (Mesothelioma); -0.036 in [7]; -0.0283 with NB14 (Neuroblastoma). For the same compound, the Bliss excess in assay [8] was -0.0227; in assay [9], -0.0105; in assay [10] it was -0.0025; in [11], -0.0136; in [12], -0.0362; in assay [13], -0.0478. Moreover, the Bliss excess was -0.0131 in assay [14], -0.0802 in [15], -0.0476 in the assay with COLO-829 (Melanoma) and -0.0276 in [16].

Take `Cc1c2c(nn1C)CSCc1cc(n(C)n1)CSc1cc(c3ccccc3c1)OCCCc1c(C(=O)O)n(C)c3c-2c(Cl)ccc13` [AZD5991] + CCN(CCO)CCCOc1ccc2c(Nc3cc(CC(=O)Nc4cccc(F)c4)[nH]n3)ncnc2c1 [AZD2811] (first compound max 1 µM, 7x7, partner max 1 µM): the “combination Emax” value came out at 0.366 with Mewo (Melanoma), 1 in assay [1], 0.256 in assay [2] and 0.206 in assay [3]. In addition, the Bliss excess is 0.063 in assay [4]; 0.0672 in [5]; -0.0117 in assay [6]; 0.041 in the assay with NCI-H2795 (Mesothelioma); 0.0457 in assay [7]; 0.0085 in the assay with NB14 (Neuroblastoma). The Bliss excess in assay [8] was 0.125; in assay [9], -0.0431; in [10], 0.0147; in assay [11], 0.0092; in assay [12] it was 0.0141; in assay [13] it was 0.0561. For the same compound, the Bliss excess in assay [14] was 0.0201; in assay [15], -0.0303; in the assay with COLO-829 (Melanoma), -0.0319; in [16], -0.0403.

Turning to `Cc1cc2ncnn2cc1Nc1ncc2c(n1)n(C1CCOCC1)c(=O)n2C` [AZD7648] + CN(C)CCCOc1ccc(-c2ccc3ncc4c(c3c2)n(C2CCOCC2)c(=O)n4C)cn1 [AZD0156] (first compound max 10 µM, 7x7, partner max 1 µM), the “combination Emax” value in the assay on Mewo (Melanoma) amounted to 0.285; in assay [1] it was 0.208; in assay [2] it was 0.19; in [3] it was 0.31. Besides, the Bliss excess is 0.0139 in [4]; -0.0306 in assay [5]; -0.0381 in assay [6]; -0.025 in the assay on NCI-H2795 (Mesothelioma); 0.0334 in assay [7]; 0.0053 in the assay on NB14 (Neuroblastoma). Also, the Bliss excess in assay [8] is 0.0229; in assay [9], -0.0226; in assay [10], 0.118; in assay [11], -0.044; in [12], 0.0225; in assay [13] it was -0.0241. The Bliss excess in [14] is 0.0317; in assay [15], -0.0201; in the assay with COLO-829 (Melanoma) it was -0.0203; in assay [16] it was 0.0567.

Regarding `C=CCn1c(=O)c2cnc(Nc3ccc(N4CCN(C)CC4)cc3)nc2n1-c1cccc(C(C)(C)O)n1` [AZD1775] + O=C(c1cc(Cc2n[nH]c(=O)c3ccccc23)ccc1F)N1CCN(C(=O)C2CC2)CC1 [Olaparib] (first compound max 1 µM, partner max 10 µM), the “combination Emax” value was 0.382 in the assay with Mewo (Melanoma), 0.972 in assay [1], 0.343 in assay [2] and 0.516 in assay [3]. The Bliss excess was 0.0271 in assay [4]; -0.0775 in assay [5]; -0.0536 in assay [6]; -0.0182 in the assay on NCI-H2795 (Mesothelioma); 0.0291 in [7]; -0.0306 in the assay with NB14 (Neuroblastoma). Moreover, the Bliss excess in assay [8] was 0.0461; in assay [9], -0.0175; in assay [10], -0.0311; in [11] it was -0.0166; in [12] it was -0.0526; in assay [13], -0.017. Moreover, the Bliss excess in assay [14] is -0.0119; in [15], -0.0123; with COLO-829 (Melanoma), -0.0137; in assay [16], -0.0488.

Consider `CN(CCO)CC[C@H](CSc1ccccc1)Nc1ccc(S(=O)(=O)NC(=O)c2ccc(N3CCC([C@@H](O)c4ccccc4-c4ccc(Cl)cc4)CC3)cc2)cc1S(=O)(=O)C(F)(F)F` [AZD4320] + C[C@@H]1COCCN1C2=NC(=NC(=C2)C3(CC3)[S@](=N)(=O)C)C4=C5C=CNC5=NC=C4 [AZD6738] (first compound max 1 µM, 7x7, partner max 10 µM), for which the “combination Emax” value with Mewo (Melanoma) was 0.647; in [1] it was 1; in assay [2], 0.375; in assay [3] it was 0.724. The Bliss excess was 0.028 in assay [4]; -0.0613 in assay [5]; -0.0171 in [6]; 0.0173 with NCI-H2795 (Mesothelioma); -0.0066 in [7]; -0.0372 with NB14 (Neuroblastoma). In addition, the Bliss excess in [8] is 0.0135; in [9], -0.0512; in [10], -0.039; in [11], -0.0446; in assay [12], -0.0606; in assay [13] it was -0.0356. Further, the Bliss excess in assay [14] is -0.0309; in [15], 0.0034; with COLO-829 (Melanoma), -0.0409; in assay [16] it was -0.0085.
